Source: patent US20240342156A1, “METHODS FOR TREATING PAIN” (Xenon Pharmaceuticals Inc., priority 2019, published 2024)
Read-outs that look alike come from different tables or passages of the source.

Assays:
[1] = Crossover study with pharmacokinetic analysis, single oral dose in healthy male subjects; type: in vivo, human; details: for concentration at 6 days: oral, subjects who received placebo in Period 2
From the text: The pharmacokinetics (PK), safety, and tolerability of single doses of Compound A in healthy right-handed male human subjects were investigated in a randomized, double-blind, placebo-controlled, transcranial magnetic stimulation (TMS) crossover study.
An objective of the study was to evaluate the safety, tolerability, and pharmacokinetics of single doses of Compound A in healthy male subjects.
Twenty healthy right-handed male subjects were enrolled and randomized in a blinded fashion to receive a single oral dose of 20 mg Compound A or placebo (1:1 randomization ratio) on Day 1, then were crossed over to receive a single dose of the other treatment on Day 7.
Subjects were screened within 27 days prior to entering the study on Day 1. For Period 1, subjects were admitted to the study unit and dosed on Day 1, and discharged on Day 2. For Period 2, following a washout of 6 days, the same subjects were again admitted to the study unit and dosed on Day 7, and discharged on Day 8. All subjects returned to the clinical unit for an outpatient visit on Day 14, and received a follow-up telephone call on Day 37.
Subjects were dosed in a fed state, but the timing of dosing relative to meals was changed during the study, and varied between a high fat or standard meal eaten either 2 h or 30 minutes prior to dosing, and a high fat or standard meal eaten 1 h or 2.5 h after dosing.
The PK parameters for this study were summarized in two ways. Firstly, PK parameters were calculated where possible using the PK samples collected during each 24 h sampling period for Period 1 and Period 2 separately. Secondly, PK parameters were determined using samples beyond the 24 h sampling period (i.e., from Day 7/8 and/or Day 14). For subjects who received Compound A in the first period, PK samples taken prior to placebo treatment provided additional PK timepoints at >24 h. For subjects who received Compound A in the second period, there was no >24 h PK timepoint until a Day 14 PK sample was added. […] The full PK profile data set consists of the 16 subjects for whom PK samples were taken at >24 h post-dose. For discussion of the PK parameters below, the full PK profile data set was generally used, because it allowed more accurate estimation of PK parameters.
Initially, subjects were dosed 2 hours after a high fat meal with a relatively high fat lunch provided 1 hour after dosing. After blinded review of the PK profiles in the initial 8 subjects, the fat content of the lunch was reduced in an attempt to reduce the time to Tmax. In addition, the timing of the meal relative to dose was changed from 2 hours prior, to 30 minutes prior to dose and subsequently the fat content of the breakfast was reduced. The timing and type of meal for each subject is specified in Table 8. […] As such the PK data is presented without categorization according to meal content, or relative timing of the meal.

[2] = system: rat spinal nerve ligation (SNL)/Chung model of neuropathic pain; test: Spinal nerve ligation (SNL)/Chung model, thermal allodynia, cold plate test on lesioned paw; type: in vivo
Description: Objective: The efficacy of Compound A was assessed using the rat spinal nerve ligation (SNL)/Chung model of neuropathic pain. The SNL model in rats was developed as described previously (Chung J M, Kim H K, Chung K. “Segmental spinal nerve ligation model of neuropathic pain.” Methods Mol. Med. 99 (2004) 35-45).
Study Design. Briefly, on Day 0, von Frey and cold plate tests were used for baseline measurements of tactile and cold allodynia respectively. Post-baseline measurements, rats (171-209 g male Sprague Dawley) were anesthetized and an incision at the L4-S2 level was performed to expose the left L5 nerve. […] The wound was then sutured and the rats were allowed to recover. On Day 13, post-surgery baselines for tactile and cold allodynia were measured to verify neuropathic pain. Animals were assigned to treatment groups based on the post-surgery baseline score.
Dosing: For efficacy testing, Compound A was dosed orally once a day for 5 consecutive days from Day 14-18.
The cold plate apparatus was maintained at 4±1° C. and was surrounded by an acrylic glass enclosure. Rats were placed on the plate for a period of 5 minutes. The latency to 1st paw-withdrawal, total number of paw withdrawals, and total duration of withdrawal responses were recorded for the surgery hind paw.

[3] = 20 mg single oral dose, fed, Full PK Profile (N = 16)
[4] = 20 mg single oral dose, fed, Overall (N = 20)
[5] = 20 mg single oral dose, fed, Period 1 (N = 10)
[6] = 20 mg single oral dose, fed, Period 2 (N = 10)
[7] = 20 mg single oral dose, full PK data set
[8] = Day 18 at 2 h, 8 mg/kg p.o. once daily Day 14-18
[9] = Day 18 at 2 h, 16 mg/kg p.o. once daily Day 14-18
[10] = Day 18 at 2 h, 24 mg/kg p.o. once daily Day 14-18

For Cc1cc(N2CCc3cc(F)ccc3C2)cc(C)c1NC(=O)CC(C)(C)C [Compound A, N-[4-(6-fluoro-3,4-dihydro-TH-isoquinolin-2-yl)-2,6-dimethylphenyl]-3,3-dimethylbutanamide], the “Clast (ng/mL), Mean ± SD” value [1, 3] was 4.52 ± 1.82 ng/mL, the “Clast (ng/mL), Range” value [1, 3] was 1.33 to 7.67 ng/mL and the “Tlast (h), Mean ± SD” value [1, 3] was 235 ± 81.5 h. The “Tlast (h), Range” value [1, 3] was 142 to 360 h, the “Clast (ng/mL), Mean ± SD” value [1, 4] was 16.4 ± 4.69 ng/mL and the “Clast (ng/mL), Range” value [1, 4] was 7.1 to 27.8 ng/mL. For the same molecule, the “Tlast (h), Mean ± SD” value [1, 4] was 23.8 ± 0.299 h, the “Tlast (h), Range” value [1, 4] was 23.1 to 24.3 h and the “Tmax (h), Median” value [1, 4] was 7.83 h. For the same molecule, the “Tmax (h), Range” value [1, 4] was 1.92 to 12 h, the “Clast (ng/mL), Mean ± SD” value [1, 5] was 16.4 ± 5.61 ng/mL and the “Clast (ng/mL), Range” value [1, 5] was 10.1 to 27.8 ng/mL. For the same molecule, the “Tlast (h), Mean ± SD” value [1, 5] was 23.8 ± 0.375 h, the “Tlast (h), Range” value [1, 5] was 23.1 to 24.3 h and the “Clast (ng/mL), Mean ± SD” value [1, 6] was 16.4 ± 3.87 ng/mL. The “Clast (ng/mL), Range” value [1, 6] was 7.1 to 21.3 ng/mL, the “Tlast (h), Mean ± SD” value [1, 6] was 23.8 ± 0.213 h and the “Tlast (h), Range” value [1, 6] was 23.5 to 24.1 h. The “extrapolated area (% AUCextrap), median” value [1, 7] was 19.9%, the “extrapolated area (% AUCextrap), range” value [1, 7] was 10.6-40.5% and the concentration at 6 days ([1]; male, human, plasma, 20 mg, read-out: Compound A levels after washout between periods, mean) was 3.1 ng/mL. For the same molecule, the concentration at 6 days ([1]; male, human, plasma, 20 mg, read-out: Compound A levels after washout between periods, range) was 1.3 to 6.8 ng/mL, the concentration at 2 h ([1]; male, human, plasma, po, 20 mg, 2 h timepoint, 20 mg single oral dose, full PK profile, read-out: mean SD plasma concentration) was 15.9 ± 21.4 ng/mL and the concentration at 4 h ([1]; male, human, plasma, po, 20 mg, 4 h timepoint, 20 mg single oral dose, full PK profile, read-out: mean SD plasma concentration) was 30.2 ± 21.1 ng/mL. The concentration at 6 h ([1]; male, human, plasma, po, 20 mg, 6 h timepoint, 20 mg single oral dose, full PK profile, read-out: mean SD plasma concentration) was 42.1 ± 19.1 ng/mL, the AUC(0-inf) ([1]; male, human, plasma, 20 mg single oral dose, fed, Full PK Profile Data Set (N = 16), read-out: AUCinf (ng*h/mL), Range) was 1920 to 7390 ng·h/mL and the AUC(0-t) ([1]; male, human, plasma, 20 mg single oral dose, fed, Full PK Profile Data Set (N = 16), read-out: AUClast (ng*h/mL), Range) was 1580 to 4400 ng·h/mL. For the same molecule, the CL/F ([1]; male, human, plasma, 20 mg single oral dose, fed, Full PK Profile Data Set (N = 16), read-out: CL/F normalized (mL/h/kg), Range) was 40.3 to 136 mL/h/kg, the MRT inf ([1]; male, human, plasma, 20 mg single oral dose, fed, Full PK Profile Data Set (N = 16), read-out: MRTinf (h), Range) was 33 to 304 h and the MRT last ([1]; male, human, plasma, 20 mg single oral dose, fed, Full PK Profile Data Set (N = 16), read-out: MRTlast (h), Range) was 48.2 to 122 h. For the same molecule, the Vd/F ([1]; male, human, plasma, 20 mg single oral dose, fed, Full PK Profile Data Set (N = 16), read-out: Vz/F normalized (L/kg), Range) was 6.4 to 33.8 L/kg, the Tmax ([1]; male, human, plasma, 20 mg single oral dose, fed, Overall (N = 20), read-out: Tmax (h), Median) was ~8 h and the “Latency to first paw-withdrawal (s), Mean ± s.e.m.” value (“Latency to first paw-withdrawal (s)” for short) ([2]; Day 14 at 2 h, 8 mg/kg p.o.) was 226.8 ± 29.4 s. The “Latency to first paw-withdrawal, compared with Vehicle (p.o.), Δ%” value (from here on “Latency to first paw-withdrawal … (p.o.), Δ%”) ([2]; Day 14 at 2 h, 8 mg/kg p.o.) was “+74%”, the “Number of withdrawal responses, Mean ± s.e.m.” value (“Number … Mean ± s.e.m.” for short) ([2]; Day 14 at 2 h, 8 mg/kg p.o.) was 2.1 ± 0.8 and the “Number of withdrawal responses, compared with Vehicle (p.o.), Δ%” value (“Number of withdrawal responses … (p.o.), Δ%” for short) ([2]; Day 14 at 2 h, 8 mg/kg p.o.) was −79%. For the same molecule, the “Total duration of withdrawal responses (s), Mean ± s.e.m.” value (“Total duration … Mean ± s.e.m.” below) ([2]; Day 14 at 2 h, 8 mg/kg p.o.) was 3.4 ± 3.4 s, the “Total duration of withdrawal responses, compared with Vehicle (p.o.), Δ%” value (“Total duration … (p.o.), Δ%” below) ([2]; Day 14 at 2 h, 8 mg/kg p.o.) was “+55%” and the “Latency to first paw-withdrawal (s)” value ([2]; Day 14 at 2 h, 16 mg/kg p.o.) was 214.9 ± 29.2 s. For the same molecule, the “Latency to first paw-withdrawal … (p.o.), Δ%” value ([2]; Day 14 at 2 h, 16 mg/kg p.o.) was “+65%”, the “Number … Mean ± s.e.m.” value ([2]; Day 14 at 2 h, 16 mg/kg p.o.) was 3.0 ± 1.7 and the “Number of withdrawal responses … (p.o.), Δ%” value ([2]; Day 14 at 2 h, 16 mg/kg p.o.) was −70%. The “Total duration … Mean ± s.e.m.” value ([2]; Day 14 at 2 h, 16 mg/kg p.o.) was 0.8 ± 0.7 s, the “Total duration … (p.o.), Δ%” value ([2]; Day 14 at 2 h, 16 mg/kg p.o.) was −64% and the “Latency to first paw-withdrawal (s)” value ([2]; Day 14 at 2 h, 24 mg/kg p.o.) was 280.0 ± 20.0 s. For the same molecule, the “Latency to first paw-withdrawal … (p.o.), Δ%” value ([2]; Day 14 at 2 h, 24 mg/kg p.o.) was “+115%”, the “Number … Mean ± s.e.m.” value ([2]; Day 14 at 2 h, 24 mg/kg p.o.) was 0.9 ± 0.9 and the “Number of withdrawal responses … (p.o.), Δ%” value ([2]; Day 14 at 2 h, 24 mg/kg p.o.) was −91%. For the same molecule, the “Total duration … Mean ± s.e.m.” value ([2]; Day 14 at 2 h, 24 mg/kg p.o.) was 0.0 ± 0.0 s, the “Total duration … (p.o.), Δ%” value ([2]; Day 14 at 2 h, 24 mg/kg p.o.) was −100% and the “thermal allodynia endpoint, comparison with morphine (128 mg/kg)” value ([2]; Day 18 (FIGS. 7-9), at both 16 and 24 mg/kg) was “outperformed morphine”. The “Latency to first paw-withdrawal (s)” value [2, 8] was 180.4 ± 26.5 s, the “Latency to first paw-withdrawal … (p.o.), Δ%” value [2, 8] was “+92%” and the “Number … Mean ± s.e.m.” value [2, 8] was 7.7 ± 2.8. For the same molecule, the “Number of withdrawal responses … (p.o.), Δ%” value [2, 8] was −29%, the “Total duration … Mean ± s.e.m.” value [2, 8] was 1.3 ± 0.9 s and the “Total duration … (p.o.), Δ%” value [2, 8] was −88%. For the same molecule, the “Latency to first paw-withdrawal (s)” value [2, 9] was 257.0 ± 23.5 s, the “Latency to first paw-withdrawal … (p.o.), Δ%” value [2, 9] was “+173%” and the “Number … Mean ± s.e.m.” value [2, 9] was 1.3 ± 2.8. For the same molecule, the “Number of withdrawal responses … (p.o.), Δ%” value [2, 9] was −88%, the “Total duration … Mean ± s.e.m.” value [2, 9] was 0.0 ± 0.0 s and the “Total duration … (p.o.), Δ%” value [2, 9] was −100%. The “Latency to first paw-withdrawal (s)” value [2, 10] was 263.8 ± 24.3 s, the “Latency to first paw-withdrawal … (p.o.), Δ%” value [2, 10] was “+180%” and the “Number … Mean ± s.e.m.” value [2, 10] was 0.6 ± 0.5. For the same molecule, the “Number of withdrawal responses … (p.o.), Δ%” value [2, 10] was −94%, the “Total duration … Mean ± s.e.m.” value [2, 10] was 0.0 ± 0.0 s and the “Total duration … (p.o.), Δ%” value [2, 10] was −100%.
